In ChEMBL document CHEMBL3879915, “Methods of inhibiting PRMT5” (2014):

Legend:
[1] = Antiproliferative activity against human Z138 cells assessed as inhibition of cell viability after 5 days by Cell-Titer Glo assay; assay type: functional, cell-based; conditions: Z-138, 120 h
PRMT5/MEP50 complex = PRMT5/MEP50 complex (Homo sapiens, UniProt O14744); assay: Inhibition of recombinant human fetal brain FLAG-tagged PRMT5/full length human testis 6His-tagged MEP50 expressed in baculovirus infected insect Sf9 cells using human histone H4 (1 to 15 residues) as substrate preincubated for 30 mins followed by [3H]-SAM addition
Chain of PRMT5/MEP50 complex (O14744 whole entry, the tested form may be a part): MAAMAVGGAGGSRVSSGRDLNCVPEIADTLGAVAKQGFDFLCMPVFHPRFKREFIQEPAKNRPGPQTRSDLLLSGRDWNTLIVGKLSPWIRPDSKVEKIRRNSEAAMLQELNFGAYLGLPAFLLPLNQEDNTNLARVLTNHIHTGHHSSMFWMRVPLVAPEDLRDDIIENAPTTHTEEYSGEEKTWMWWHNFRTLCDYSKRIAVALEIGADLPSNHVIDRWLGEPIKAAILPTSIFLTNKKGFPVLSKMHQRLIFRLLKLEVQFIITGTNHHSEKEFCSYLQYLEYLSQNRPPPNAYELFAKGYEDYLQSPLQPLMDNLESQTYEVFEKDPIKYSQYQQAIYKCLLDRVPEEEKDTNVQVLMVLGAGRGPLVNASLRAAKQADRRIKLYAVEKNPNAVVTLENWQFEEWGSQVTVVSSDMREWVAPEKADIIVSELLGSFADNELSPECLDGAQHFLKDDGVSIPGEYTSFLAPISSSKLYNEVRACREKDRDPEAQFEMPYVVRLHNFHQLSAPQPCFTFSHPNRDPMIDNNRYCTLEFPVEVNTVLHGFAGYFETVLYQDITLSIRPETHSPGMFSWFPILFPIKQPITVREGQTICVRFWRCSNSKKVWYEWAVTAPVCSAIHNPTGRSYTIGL
Chain of PRMT5/MEP50 complex (Q9BQA1 whole entry, further chain, the tested form may be a part): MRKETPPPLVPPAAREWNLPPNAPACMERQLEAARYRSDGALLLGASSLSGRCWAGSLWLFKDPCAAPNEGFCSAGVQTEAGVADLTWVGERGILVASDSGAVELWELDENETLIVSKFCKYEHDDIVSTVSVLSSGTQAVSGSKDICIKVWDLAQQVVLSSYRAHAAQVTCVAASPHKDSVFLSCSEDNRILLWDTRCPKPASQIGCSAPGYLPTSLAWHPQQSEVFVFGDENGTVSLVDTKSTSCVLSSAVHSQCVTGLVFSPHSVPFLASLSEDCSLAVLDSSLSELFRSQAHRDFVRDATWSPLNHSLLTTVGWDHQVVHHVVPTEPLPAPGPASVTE

| Structure (SMILES) | IC50 (PRMT5/MEP50 complex) [µM] | EC50 [1] [µM] |
| --- | --- | --- |
| OC(COc1ccc(C2CCNCC2)cc1)CN1CCc2ccccc2C1 (stereo unspecified) | 1 to 10 | 10 to 40 |
| OC(COc1cccc(CNC2CCCC2)c1)CN1CCc2ccccc2C1 (stereo unspecified) | 0.101 to 1 | 10 to 40 |
| CN1CCC(OCC(O)CN2CCc3ccccc3C2)CC1 (stereo unspecified) | > 40 | > 40 |
| OC(COC1CCCNC1)CN1CCc2ccccc2C1 (stereo unspecified) | > 40 | > 40 |
| OC(COC1CCCCCC1)CN1CCc2ccccc2C1 (stereo unspecified) | 1 to 10 | > 40 |
| CC(C)n1nccc1-c1ccc(OCC(O)CN2CCc3ccccc3C2)cc1 (stereo unspecified) | 10 to 40 | > 40 |
| CC(C)(C)OC(=O)N1CCCC(OCC(O)CN2CCc3ccccc3C2)C1 (stereo unspecified) | 1 to 10 | > 40 |
| OC(COCC1CCNC1)CN1CCc2ccccc2C1 (stereo unspecified) | > 40 | > 40 |
| CN1CCC(OCC(O)CN2CCc3ccccc3C2)C1 (stereo unspecified) | > 40 | > 40 |
| C[C@H](Oc1cccc2cccnc12)C(=O)NC[C@H](O)CN1Cc2ccccc2C1 | 1 to 10 |  |
| CC(=O)N1CCN(CC(O)CN2CCc3ccccc3C2)C(=O)C1 (stereo unspecified) | 1 to 10 |  |
| CCCCNCc1cccc(COCC(O)CN2CCc3ccccc3C2)c1 (stereo unspecified) | 0.101 to 1 | > 20 |
| CN1CC(c2ccccc2OCC(=O)NCC(O)CN2CCc3ccccc3C2)C1 (stereo unspecified) | 1 to 10 |  |
| O=C(Nc1cccc(OCC(O)CN2CCc3ccccc3C2)c1)c1ccnnc1 (stereo unspecified) | 1 to 10 |  |
| OC(COc1ccc(-n2cncn2)cc1)CN1CCc2ccccc2C1 (stereo unspecified) | 1 to 10 | > 20 |
| C[C@@H](Oc1cccc2cccnc12)C(=O)NC[C@@H](O)CN1Cc2ccccc2C1 | 1 to 10 |  |
| CN(C)c1ccc(N2CCN(C[C@H](O)CN3CCc4ccccc4C3)C(=O)C2)cc1 | 1 to 10 |  |
| CN(CC(O)CN1CCc2ccccc2C1)c1cccc(C(=O)NC2CCOCC2)c1 (stereo unspecified) | 10 to 40 |  |
| O=C(CC1CCCCC1)NC[C@H](O)CN1CCc2ccccc2C1 | 1 to 10 |  |
| O=C(NC1CCOCC1)C1CC(=O)N(CC(O)CN2CCc3ccccc3C2)C1 (stereo unspecified) | > 10 |  |
| OC(COCc1cc(-c2ccc(Cl)cc2)no1)CN1CCc2ccccc2C1 (stereo unspecified) | 0.101 to 1 |  |
| NS(=O)(=O)c1ccc(OCC(=O)NCC(O)CN2CCc3ccccc3C2)cc1 (stereo unspecified) | 1 to 10 |  |
| Nc1cccc(C(=O)NCC(O)CN2Cc3ccccc3C2)c1 (stereo unspecified) | 1 to 10 |  |
| OC(COc1ccccc1N1CCNCC1)CN1CCc2ccccc2C1 (stereo unspecified) | 10 to 40 |  |
| Cn1cnc2ccc(-c3cccc(OCC(O)CN4CCc5ccccc5C4CC(N)=O)c3)cc21 (stereo unspecified) | > 40 |  |

| Structure (SMILES) | IC50 (PRMT5/MEP50 complex) [µM] | EC50 [1] [µM] |
| --- | --- | --- |
| O=C(COc1ccccc1C1CNC1)NCC(O)CN1CCc2ccccc2C1 (stereo unspecified) | 1 to 10 |  |
| COc1cccc2c1CCN(CC(O)COc1cccc(CNC3CCCC3)c1)C2 (stereo unspecified) | > 40 |  |
| O=C(NC1CCOCC1)c1cccc(NCC(O)CN2CCc3ccccc3C2)c1 (stereo unspecified) | 10 to 40 |  |
| Cn1cnc2ccc(-c3cccc(OC[C@H](O)CN4Cc5ccccc5C4)c3)cc21 | 1 to 10 |  |
| OC(COC1CCN(c2ccccc2)C1)CN1CCc2ccccc2C1 (stereo unspecified) | 1 to 10 |  |
| O=C(Nc1cccc(OCC(O)CN2CCc3ccccc3C2)c1)c1cocn1 (stereo unspecified) | 1 to 10 |  |
| O=C(COc1cccc2c1CCCN2)NCC(O)CN1CCc2ccccc2C1 (stereo unspecified) | 0.101 to 1 |  |
| CS(=O)(=O)N1CCN(CC(O)CN2CCc3ccccc3C2)C(=O)C1 (stereo unspecified) | 1 to 10 |  |
| CN(CC(O)CN1CCc2ccccc2C1)C(=O)COc1ccccc1 (stereo unspecified) | 10 to 50 |  |
| CS(=O)(=O)Nc1cccnc1OCC(=O)NCC(O)CN1CCc2ccccc2C1 (stereo unspecified) | 1 to 10 |  |
| O=C(COc1cccc(NC2CCOCC2)n1)NCC(O)CN1CCc2ccccc2C1 (stereo unspecified) | 1 to 10 |  |
| COc1c(COCC(O)CN2CCc3ccccc3C2)ccc2ccccc12 (stereo unspecified) | 1 to 10 |  |
| COc1ccc(Cn2nccc2-c2ccc(OC[C@H](O)CN3CCc4ccccc4C3)cc2)cc1 | 1 to 10 |  |
| O=C(COc1cccc2cccnc12)NC[C@@H](O)CN1Cc2ccccc2C1 | 1 to 10 |  |
| OC(COc1cccc(CNc2cc[nH]n2)c1)CN1CCc2ccccc2C1 (stereo unspecified) | 0.101 to 1 |  |
| CC(=O)Nc1cccnc1OCC(=O)NCC(O)CN1CCc2ccccc2C1 (stereo unspecified) | > 50 |  |
| CC1Cc2ccccc2CN1CC(O)COc1cccc(CNC2CCCC2)c1 (stereo unspecified) | > 40 |  |
| O=C(Nc1ccccn1)c1cccc(OCC(O)CN2CCc3ccccc3C2)c1 (stereo unspecified) | 0.101 to 1 |  |
| O=c1cc(Nc2ccccc2)ccn1C[C@H](O)CN1CCc2ccccc2C1 | 1 to 10 |  |
| CN(C(=O)c1cnco1)c1cccc(OCC(O)CN2CCc3ccccc3C2)c1 (stereo unspecified) | 1 to 10 |  |
| O=C(NCC(O)CN1CCc2ccccc2C1)c1cc(NC2CCOCC2)ccc1F (stereo unspecified) | 0.101 to 1 |  |
| OC(COc1cccc(-c2cncc(F)c2)c1)CN1CCc2ccccc2C1 (stereo unspecified) | 1 to 10 |  |
| OC(COCc1ccc(Cl)cc1)CN1CCc2ccccc2C1 (stereo unspecified) | 1 to 10 |  |
| CN1CCC(c2ccccc2OCC(=O)NCC(O)CN2CCc3ccccc3C2)C1 (stereo unspecified) | 1 to 10 |  |

The next lines start with results.

| IC50 (PRMT5/MEP50 complex) [µM] | Structure (SMILES) | EC50 [1] [µM] |
| --- | --- | --- |
| > 40 | CCn1ccnc1COCC(O)CN1CCc2ccccc2C1 (stereo unspecified) | > 40 |
| 1 to 10 | O=C(c1ccc(Cn2ccc(-c3ccc(OCC(O)CN4CCc5ccccc5C4)cc3)n2)cc1)N1CCCC1 (stereo unspecified) | 10 to 40 |
| 10 to 40 | OC(COCC1CCCO1)CN1CCc2ccccc2C1 (stereo unspecified) | > 40 |
| 10 to 40 | OC(COC1CCOCC1)CN1CCc2ccccc2C1 (stereo unspecified) | > 40 |
| 1 to 10 | OC(COc1cccc(CNC2CCCC2)c1)CN1Cc2ccccc2C1 (stereo unspecified) | 10 to 50 |
| 0.101 to 40 | OC(COCC1COc2ccccc2O1)CN1CCc2ccccc2C1 (stereo unspecified) | > 40 |
| > 40 | COc1cc2c(cc1OC)CN(CC(O)COc1cccc(CNC3CCCC3)c1)CC2 (stereo unspecified) | 10 to 40 |
| > 40 | CN1CCCCC1COCC(O)CN1CCc2ccccc2C1 (stereo unspecified) | > 40 |
| 1 to 10 | COc1cccc(COCC(O)CN2CCc3ccccc3C2)c1 (stereo unspecified) | > 40 |
| 0.101 to 1 | CCC1c2ccccc2CCN1CC(O)COc1cccc(-c2ccc3ncn(C)c3c2)c1 (stereo unspecified) | > 20 |
| 1 to 10 | Cc1nn(-c2ccccc2)c(C)c1COCC(O)CN1CCc2ccccc2C1 (stereo unspecified) | > 40 |
| 1 to 10 | CC(C)(C)OC(=O)N1CCC(OCC(O)CN2CCc3ccccc3C2)CC1 (stereo unspecified) | > 40 |
| 10 to 40 | CC(OCC(O)CN1CCc2ccccc2C1)c1cccnc1 (stereo unspecified) | > 40 |
| 1 to 10 | OC(COC1Cc2ccccc2C1)CN1CCc2ccccc2C1 (stereo unspecified) | > 40 |
| 1 to 10 | O=C(Nc1cc[nH]n1)c1cccc(OCC(O)CN2CCc3ccccc3C2)c1 (stereo unspecified) |  |
| 1 to 10 | O=C(COc1ccccc1OCCN1CCOCC1)NC[C@@H](O)CN1CCc2ccccc2C1 |  |
| 1 to 10 | COc1cccc2c1CCN(CC(O)COc1cccc(-c3ccc4ncn(C)c4c3)c1)C2 (stereo unspecified) |  |
| > 40 | CN(C)S(=O)(=O)c1cccc(-c2cccc(OCC(O)CN3CCc4ccccc4C3)c2)c1 (stereo unspecified) |  |
| > 10 | CN(C)c1cccnc1OCC(=O)NCC(O)CN1CCc2ccccc2C1 (stereo unspecified) |  |

| IC50 (PRMT5/MEP50 complex) [µM] | Structure (SMILES) | EC50 [1] [µM] |
| --- | --- | --- |
| 10 to 40 | COc1cccc2c1CN(CC(O)COc1cccc(CNC3CCCC3)c1)CC2 (stereo unspecified) | 10 to 40 |
| 0.101 to 1 | CC1(C)CC(Nc2cccc(C(=O)NCC(O)CN3CCc4ccccc4C3)c2)CCO1 (stereo unspecified) |  |
| < 0.1 | OC(CNc1cc(-c2ccc3ncn(C4CNC4)c3c2)ccn1)CN1CCc2ccccc2C1 (stereo unspecified) |  |
| 1 to 10 | Cn1cnc2ccc(-c3cccc(OCC(O)CN4Cc5ccccc5C4)c3)cc21 (stereo unspecified) |  |
| 1 to 10 | O=C(COc1cccc2[nH]c(=O)cnc12)NCC(O)CN1CCc2ccccc2C1 (stereo unspecified) |  |
| > 40 | Cn1cnc2ccc(-c3cccc(OCC(O)CN4CCc5ccccc5C4Cc4ccccc4)c3)cc21 (stereo unspecified) |  |
| 1 to 10 | Cc1ccc(-c2cccc(OCC(O)CN3CCc4ccccc4C3)c2)cn1 (stereo unspecified) |  |
| 1 to 10 | OC(COc1cccc(-c2cccc(Oc3ccccc3)c2)c1)CN1CCc2ccccc2C1 (stereo unspecified) |  |
| > 10 | O=C(COc1cccc2cccnc12)NCC(O)CN1Cc2ccccc2C(F)(F)C1 (stereo unspecified) |  |
| 0.101 to 1 | O=C(NCC(O)CN1CCc2ccccc2C1)c1cccc(CN2CCOCC2)c1 (stereo unspecified) |  |
| 1 to 10 | CC(C)(C)OC(=O)N1CCC(OCC(O)CN2CCc3ccccc3C2)C1 (stereo unspecified) |  |
| 1 to 10 | O=C1CC(c2ccccc2)CCN1C[C@@H](O)CN1CCc2ccccc2C1 (stereo partly specified) |  |
| 1 to 10 | Cn1cnc2nc(-c3cccc(OCC(O)CN4CCc5ccccc5C4)c3)ncc21 (stereo unspecified) |  |
| 1 to 10 | O=C1CC(c2ccccc2)CCN1C[C@H](O)CN1CCc2ccccc2C1 (stereo partly specified) |  |
| > 40 | COc1ccc(Cn2nccc2-c2ccc(OC[C@@H](O)CN3CCc4ccccc4C3)cc2)cc1 |  |
| 1 to 10 | OC(COC1CCCC1)CN1CCc2ccccc2C1 (stereo unspecified) |  |
| 1 to 10 | NS(=O)(=O)c1cccc(OCC(=O)NCC(O)CN2CCc3ccccc3C2)c1 (stereo unspecified) |  |
| > 50 | CC(Oc1ccccc1S(N)(=O)=O)C(=O)NCC(O)CN1CCc2ccccc2C1 (stereo unspecified) |  |
| 1 to 10 | O=C(CCc1ccccc1)NCC(O)CN1CCc2ccccc2C1 (stereo unspecified) |  |

| IC50 (PRMT5/MEP50 complex) [µM] | Structure (SMILES) | EC50 [1] [µM] |
| --- | --- | --- |
| 1 to 10 | Cc1cccc2c1CCN(CC(O)COc1cccc(-c3ccc4ncn(C)c4c3)c1)C2 (stereo unspecified) |  |
| 10 to 50 | O=C(Cc1ccccc1)NC[C@@H](O)CN1CCc2ccccc2C1 |  |
| 1 to 10 | O=C(COc1ccccc1)NC[C@@H](O)CN1CCc2ccccc2C1 |  |
| 0.101 to 1 | OC(COc1cccc(CNC2CCOCC2)c1)CN1CCc2ccccc2C1 (stereo unspecified) |  |
| 10 to 40 | OC(COCc1ccccn1)CN1CCc2ccccc2C1 (stereo unspecified) |  |
| 1 to 10 | OC(COc1ccc(OCc2ccccc2)cc1)CN1CCc2ccccc2C1 (stereo unspecified) |  |
| 10 to 50 | O=C(Cc1ccncc1)NCC(O)CN1CCc2ccccc2C1 (stereo unspecified) |  |
| 1 to 10 | Cn1cncc1C(=O)Nc1cccc(OCC(O)CN2CCc3ccccc3C2)c1 (stereo unspecified) |  |
| > 40 | CCOC(=O)C1c2ccccc2CCN1CC(O)COc1cccc(-c2ccc3ncn(C)c3c2)c1 (stereo unspecified) |  |
| 10 to 50 | Cc1cccc(N2CCN(CC(O)CN3CCc4ccccc4C3)C(=O)C2)c1 (stereo unspecified) |  |
| 1 to 10 | OC(COc1cccc(-c2cncnc2)c1)CN1CCc2ccccc2C1 (stereo unspecified) |  |
| 1 to 10 | O=C1CN(Cc2ccccc2)CCN1CC(O)CN1CCc2ccccc2C1 (stereo unspecified) |  |
| 1 to 10 | OC(COCc1ccc(Cl)cc1Cl)CN1CCc2ccccc2C1 (stereo unspecified) |  |
| 1 to 10 | CS(=O)(=O)Nc1ccccc1C(=O)NCC(O)CN1CCc2ccccc2C1 (stereo unspecified) |  |
| 1 to 10 | CS(=O)(=O)c1ccc(OCC(=O)NCC(O)CN2CCc3ccccc3C2)cc1 (stereo unspecified) |  |
| 10 to 50 | O=C(COc1ccccc1-c1c[nH]cn1)NCC(O)CN1CCc2ccccc2C1 (stereo unspecified) |  |
| 1 to 10 | OC(COc1cccc(-c2cnccn2)c1)CN1CCc2ccccc2C1 (stereo unspecified) |  |
| 1 to 10 | O=C(NCC(O)CN1CCc2ccccc2C1)c1cccc(C(=O)N2CCOCC2)c1 (stereo unspecified) |  |
